Assay results: PubChem BioAssay (NCI)
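Tested at 5 concentrations; 48 h exposure; 96-well plates; endpoints linearly interpolated, else capped at highest concentration. At the GI50, growth is halved. At the TGI there is no net growth.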

Columns and labels:
Test in all cases: DTP human tumour cell line panel, 48 h
HOP-62 NSCLC = tested on: HOP-62 NSCLC
MCF7 breast = tested on: MCF7 breast
NCI-H23 lung = tested on: NCI-H23 lung
SNB-75 CNS = tested on: SNB-75 CNS
HCT-116 colon = tested on: HCT-116 colon
MDA-MB-231 breast = tested on: MDA-MB-231 breast
HT29 colon = tested on: HT29 colon
NCI-H460 lung = tested on: NCI-H460 lung
M14 melanoma = tested on: M14 melanoma
SK-MEL-5 melanoma = tested on: SK-MEL-5 melanoma
UACC-257 melanoma = tested on: UACC-257 melanoma
UACC-62 melanoma = tested on: UACC-62 melanoma
COLO 205 colon = tested on: COLO 205 colon
K-562 leukemia = tested on: K-562 leukemia
U251 CNS = tested on: U251 CNS
MDA-MB-435 = tested on: MDA-MB-435
SK-OV-3 ovarian = tested on: SK-OV-3 ovarian
ACHN renal = tested on: ACHN renal
SW-620 colon = tested on: SW-620 colon
TK-10 renal = tested on: TK-10 renal
EKVX NSCLC = tested on: EKVX NSCLC
PC-3 prostate = tested on: PC-3 prostate
UO-31 renal = tested on: UO-31 renal
SN12C renal = tested on: SN12C renal
HCC-2998 colon = tested on: HCC-2998 colon
SNB-19 CNS = tested on: SNB-19 CNS
NCI-H522 lung = tested on: NCI-H522 lung
SF-295 CNS = tested on: SF-295 CNS
DU-145 prostate = tested on: DU-145 prostate
KM12 colon = tested on: KM12 colon
OVCAR-4 ovarian = tested on: OVCAR-4 ovarian
CAKI-1 renal = tested on: CAKI-1 renal
MOLT-4 leukemia = tested on: MOLT-4 leukemia
786-0 renal = tested on: 786-0 renal
OVCAR-5 ovarian = tested on: OVCAR-5 ovarian
SK-MEL-28 melanoma = tested on: SK-MEL-28 melanoma
SF-268 CNS = tested on: SF-268 CNS
NCI/ADR-RES ovarian = tested on: NCI/ADR-RES ovarian
A498 renal = tested on: A498 renal
BT-549 breast = tested on: BT-549 breast
A549 NSCLC = tested on: A549 NSCLC
RPMI-8226 leukemia = tested on: RPMI-8226 leukemia
HCT-15 colon = tested on: HCT-15 colon
HOP-92 NSCLC = tested on: HOP-92 NSCLC
SK-MEL-2 melanoma = tested on: SK-MEL-2 melanoma
NCI-H226 lung = tested on: NCI-H226 lung
CCRF-CEM leukemia = tested on: CCRF-CEM leukemia
LOX IMVI melanoma = tested on: LOX IMVI melanoma
HS 578T breast = tested on: HS 578T breast
OVCAR-3 ovarian = tested on: OVCAR-3 ovarian
SR leukemia = tested on: SR leukemia
RXF 393 renal = tested on: RXF 393 renal
HL-60(TB) leukemia = tested on: HL-60(TB) leukemia
MALME-3M melanoma = tested on: MALME-3M melanoma
T-47D breast = tested on: T-47D breast
SF-539 CNS = tested on: SF-539 CNS
IGROV1 ovarian = tested on: IGROV1 ovarian
OVCAR-8 ovarian = tested on: OVCAR-8 ovarian

With `S=c1oc(CCCCCCCCc2nn(CNc3ccccc3)c(=S)o2)nn1CNc1ccccc1` the TGI (HOP-62 NSCLC) was greater than 100 µM, the TGI (MCF7 breast) was greater than 100 µM and the TGI (NCI-H23 lung) was greater than 100 µM. The TGI (SNB-75 CNS) was greater than 100 µM, the TGI (HCT-116 colon) was greater than 100 µM and the TGI (MDA-MB-231 breast) was greater than 100 µM. The TGI (HT29 colon) was greater than 100 µM, the TGI (NCI-H460 lung) was greater than 100 µM and the TGI (M14 melanoma) was greater than 100 µM. The TGI (SK-MEL-5 melanoma) was greater than 100 µM, the TGI (UACC-257 melanoma) was greater than 100 µM and the TGI (UACC-62 melanoma) was greater than 100 µM. It also gave a TGI (COLO 205 colon) greater than 100 µM, a TGI (K-562 leukemia) greater than 100 µM and a TGI (U251 CNS) greater than 100 µM. It also gave a TGI (MDA-MB-435) greater than 100 µM, a TGI (SK-OV-3 ovarian) greater than 100 µM and a TGI (ACHN renal) greater than 100 µM. The TGI (SW-620 colon) was greater than 100 µM, the TGI (TK-10 renal) was greater than 100 µM and the TGI (EKVX NSCLC) was greater than 100 µM. The TGI (PC-3 prostate) was greater than 100 µM, the TGI (UO-31 renal) was greater than 100 µM and the TGI (SN12C renal) was greater than 100 µM. For the same compound, the TGI (HCC-2998 colon) was greater than 100 µM, the TGI (SNB-19 CNS) was greater than 100 µM and the TGI (NCI-H522 lung) was greater than 100 µM. For the same compound, the TGI (SF-295 CNS) was greater than 100 µM, the TGI (DU-145 prostate) was greater than 100 µM and the TGI (KM12 colon) was greater than 100 µM. The TGI (OVCAR-4 ovarian) was greater than 100 µM, the TGI (CAKI-1 renal) was greater than 100 µM and the TGI (MOLT-4 leukemia) was greater than 100 µM. For the same compound, the TGI (786-0 renal) was greater than 100 µM, the TGI (OVCAR-5 ovarian) was greater than 100 µM and the TGI (SK-MEL-28 melanoma) was greater than 100 µM. The TGI (SF-268 CNS) was greater than 100 µM, the TGI (NCI/ADR-RES ovarian) was greater than 100 µM and the TGI (A498 renal) was greater than 100 µM. It also gave a TGI (BT-549 breast) greater than 100 µM, a TGI (A549 NSCLC) greater than 100 µM and a TGI (RPMI-8226 leukemia) greater than 100 µM. It also gave a TGI (HCT-15 colon) greater than 100 µM, a TGI (HOP-92 NSCLC) greater than 100 µM and a TGI (SK-MEL-2 melanoma) greater than 100 µM. For the same compound, the TGI (NCI-H226 lung) was greater than 100 µM.
For `COc1ccc(OC)c2c1C=C[C@H](C1(C)SCCS1)C2C(C)=O` (stereo partly drawn), the TGI (HOP-62 NSCLC) was greater than 100 µM, the TGI (CCRF-CEM leukemia) was greater than 100 µM and the TGI (MCF7 breast) was greater than 100 µM. The TGI (NCI-H23 lung) was 71.6 µM, the TGI (LOX IMVI melanoma) was 81.8 µM and the TGI (HCT-116 colon) was 65.3 µM. It also gave a TGI (HS 578T breast) of 45.6 µM, a TGI (MDA-MB-231 breast) greater than 100 µM and a TGI (HT29 colon) of 33.8 µM. The TGI (NCI-H460 lung) was 76.5 µM, the TGI (M14 melanoma) was greater than 100 µM and the TGI (SK-MEL-5 melanoma) was 47.1 µM. For the same compound, the TGI (UACC-257 melanoma) was greater than 100 µM, the TGI (OVCAR-3 ovarian) was 61.5 µM and the TGI (SR leukemia) was 59.2 µM. The TGI (RXF 393 renal) was 92.3 µM, the TGI (UACC-62 melanoma) was greater than 100 µM and the TGI (K-562 leukemia) was greater than 100 µM. For the same compound, the TGI (U251 CNS) was 73.2 µM, the TGI (MDA-MB-435) was greater than 100 µM and the TGI (HL-60(TB) leukemia) was 41.3 µM. It also gave a TGI (SK-OV-3 ovarian) of 70.9 µM, a TGI (ACHN renal) greater than 100 µM and a TGI (MALME-3M melanoma) of 89.8 µM. For the same compound, the TGI (SW-620 colon) was greater than 100 µM, the TGI (T-47D breast) was greater than 100 µM and the TGI (TK-10 renal) was greater than 100 µM. It also gave a TGI (SF-539 CNS) of 48.2 µM, a TGI (IGROV1 ovarian) greater than 100 µM and a TGI (EKVX NSCLC) greater than 100 µM. It also gave a TGI (PC-3 prostate) greater than 100 µM, a TGI (UO-31 renal) of 59.7 µM and a TGI (SN12C renal) greater than 100 µM. For the same compound, the TGI (HCC-2998 colon) was greater than 100 µM, the TGI (SNB-19 CNS) was 81.1 µM and the TGI (NCI-H522 lung) was 41.5 µM. For the same compound, the TGI (SF-295 CNS) was 65.5 µM, the TGI (DU-145 prostate) was 97.9 µM and the TGI (KM12 colon) was 99.5 µM. The TGI (OVCAR-8 ovarian) was greater than 100 µM, the TGI (OVCAR-4 ovarian) was greater than 100 µM and the TGI (CAKI-1 renal) was 90 µM. The TGI (MOLT-4 leukemia) was 60.6 µM, the TGI (786-0 renal) was greater than 100 µM and the TGI (OVCAR-5 ovarian) was 65.6 µM. The TGI (SK-MEL-28 melanoma) was greater than 100 µM, the TGI (SF-268 CNS) was greater than 100 µM and the TGI (NCI/ADR-RES ovarian) was greater than 100 µM. For the same compound, the TGI (A498 renal) was 78.2 µM, the TGI (A549 NSCLC) was greater than 100 µM and the TGI (RPMI-8226 leukemia) was 58.6 µM. It also gave a TGI (HCT-15 colon) greater than 100 µM, a TGI (HOP-92 NSCLC) greater than 100 µM and a TGI (NCI-H226 lung) of 63.4 µM.
`NC(=O)c1ncn(CC2(COC(=O)c3ccccc3)CCC2)n1` gave a GI50 (SNB-75 CNS) of 9.86 µM, a TGI (SNB-75 CNS) of 92.5 µM and a GI50 (BT-549 breast) of 82.1 µM.
